{"source": "patent US20060100168A1", "about": "“Method of treating cancer using adenosine and its analogs” (The Trustee of Boston University, priority 2002, published 2006)", "format_in_all_cases": "cell-based, human", "key": {"[1]": {"system": "estrogen receptor α (ERα) mRNA", "test": "Semi-quantitative RT-PCR of ERα mRNA in MCF-7 cells", "settings": "100 μM", "procedure": "Total RNA preparation and Reverse Transcription Polymerase Chain Reaction (RT-PCR): Total RNA from MCF-7 cells was prepared with Trizol (Invitrogen, Carlsbad, Calif.) as described before (41). For reverse transcription, 2 μg of RNA were used in a […] with random primers and M-MLV reverse transcriptase (Invitrogen, Carlsbad, Calif.), following the manufacturer's protocol. To control for possible contamination from genomic DNA in subsequent PCR reactions, control reverse transcription reactions were carried out under identical conditions, only without reverse transcriptase. After reverse transcription, 5% of the product was used in each PCR reaction. For the experiments analyzing A3 adenosine receptor (A3AR) expression, 27 cycles were used in the PCR reactions. Specific primers were designed for human A3AR, which match to two separate exons, according to genomic sequences (from GenBank). Sequences for the sense and antisense A3AR primers are: 5′tccatcatgtccttgctg3′ (SEQ ID NO: 1) and 5′gcacatgacaaccaggg3′ (SEQ ID NO.: 2). In the experiments analyzing estrogen receptor a (ERα) mRNA, semi-quantitative PCR reactions were carried out with 23 cycles for ERα primers and 19 cycles for GAPDH primers (used as a control). The cycle numbers were tested in previous experiments not to produce saturation effects. […]"}, "MCF-7 cells [2]": {"system": "MCF-7 cells", "test": "Cell cycle analysis by flow cytometry", "procedure": "Flow Cytometry and Apoptosis Analysis: Cells were detached from tissue culture plates by trypsin treatment. Cells were collected by centrifugation at 1200 g for 5 minutes and washed once with PBS. Staining of cells with propidium iodide and analysis on a flow cytometer (FACScan, Becton Dickinson, Research Triangle Park, N.C.) was performed as described before (42). Data were analyzed with CellQuest software (Becton Dickinson, Research Triangle Park, N.C.). The percentage of cells appearing with a ploidy level smaller than a diploid content was calculated as an estimate of cells undergoing apoptosis."}, "T47D cells [3]": {"system": "T47D cells", "test": "Anchorage-dependent growth assay", "settings": "100 μM, three days"}, "[4]": {"system": "ERα protein in T47D cells", "test": "ERα protein level in T47D cells", "settings": "not shown", "procedure": "Western Blot Analysis: Cells were washed three times in cold 1×PBS, and collected by scraping on ice. Western blot analysis was performed as we described before with the chemiluminescence method (41). Antibodies used in this study were: ERα (NeoMarkers, Ab-15), Cyclin A (Santa Cruz Biotech, H-432), Cyclin B1 (Santa Cruz Biotech, H-433), Cyclin E (Upstate Biotech, HE-12), p27 (Santa Cruz Biotech, F-8). ERα antibody was used at 1:100 dilutions. Cyclin A, cyclin B1 and p27 antibodies were used at 1:500 dilutions. Cyclin E antibody was used at 1:1000 dilutions."}, "MCF-7 cells [5]": {"system": "MCF-7 cells", "test": "Anchorage-dependent growth assay (viable cell count, Trypan Blue)", "settings": "MCF-7", "procedure": "Anchorage-dependent growth assay: Cells were plated into 6-well plates and grown overnight before treatments. The seeding concentration of MCF-7 cells was 2×10^5/well, which was determined during preliminary experiments as not allowing the cells to reach confluency within 3 days. Cells were treated either with vehicle or ligands, as indicated. Cells were detached by incubation with trypsin (Invitrogen, Carlsbad, Calif.) and counted with a hemacytometer before or after treatment."}, "T47D cells [6]": {"system": "T47D cells", "test": "Anchorage-independent growth (soft agar) assay", "settings": "100 μM, two weeks", "procedure": "(§1) Anchorage-independent growth (soft agar) assay: Soft agar assay was performed as described (40) with the following modifications. Ligands were added into the bottom and top agar before plating into 6-well plates. Cells were treated with trypsin (Invitrogen, Carlsbad, Calif.) for 5 minutes in a 37° C. incubator and pipetted several times so that most cells were in single cell forms. Cells were counted with a hemacytometer (Hausser Scientific/VWR, So. Plainfield, N.J.), and 10,000 cells were mixed with top agar and plated into each well. After the top agar had solidified, two ml of medium containing the same treatment was added on top of the agar. This covering medium was changed every two days during culture. After two weeks of culture, each well was counted for the number of colonies formed on an Olympus IX70 microscope under 40× optical amplification. A cell colony was defined as any cluster of cells that contain more than 3 cells. The average of counts from 3 random optical fields for each well was taken as the colony number and analyzed. Each treatment was performed in triplicates. The averages and standard deviations shown in the figures were calculated based on triplicate experiments."}, "ZR-75 cells": {"system": "ZR-75 cells", "test": "Anchorage-independent growth (soft agar) assay", "settings": "ZR-75 soft agar; 100 μM; two weeks", "procedure": "as §1"}, "HeLa cells": {"system": "HeLa cells", "test": "Anchorage-independent growth (soft agar) assay", "settings": "100 μM, two weeks", "procedure": "as §1"}, "Hs578T cells": {"system": "Hs578T cells", "test": "Anchorage-independent growth (soft agar) assay", "settings": "100 μM, two weeks", "procedure": "as §1"}, "MCF-7 cells [7]": {"system": "MCF-7 cells", "test": "Anchorage-independent growth (soft agar) assay", "procedure": "as §1"}}, "note": "Values joined by “and” are separate entries in the source; they are usually repeats but may differ in a detail not shown here. Equal entries are not always repeated. “Also recorded” adds a separate entry of the source.", "data": [{"compound": "CNC(=O)[C@H]1O[C@@H](n2cnc3c(NCc4cccc(I)c4)ncnc32)[C@H](O)[C@@H]1O", "note": "[IB-MECA, N^6-(3-iodobenzyl)adenosine-5′-N-methyluronamide]", "values": [{"measurement": "Time of first sign of decrease of ERα mRNA", "setting": "[1]", "value": 4, "unit": "h"}, {"measurement": "ERα mRNA level, in words", "setting": "[1]; 4 to 24 hours, compared to GAPDH", "value": "strongly downregulated; also recorded: dramatic decrease"}, {"measurement": "Percentage of cells in G2/M (tetraploid DNA content)", "setting": "MCF-7 cells [2]; 100 μM for 2 days, vehicle 24.6%", "value": "23.4% and 23%"}, {"measurement": "Percentage of cells in S phase", "setting": "MCF-7 cells [2]; 100 μM for 2 days, vehicle 25.2%", "value": "12.3% and 12%"}, {"measurement": "Percentage of cells in G1 phase (diploid DNA content)", "setting": "MCF-7 cells [2]; 100 μM for 2 days, vehicle 50.2%", "value": "64.2% and 64%"}, {"measurement": "Percentage change of diploid (G0 or G1 phase) population compared to vehicle-treated cells", "setting": "MCF-7 cells [2]; 100 μM, except adenosine (500 μM) and inosine (1 mM), first number in parentheses", "value": 28, "unit": "%"}, {"measurement": "Percentage change of S phase population compared to vehicle-treated cells", "setting": "MCF-7 cells [2]; 100 μM, except adenosine (500 μM) and inosine (1 mM), second number in parentheses", "value": "−51", "unit": "%"}, {"measurement": "Percentage change of tetraploid (G2 or M phase) population compared to vehicle-treated cells", "setting": "MCF-7 cells [2]; 100 μM, except adenosine (500 μM) and inosine (1 mM), third number in parentheses", "value": "−5", "unit": "%"}, {"measurement": "Cell counts after treatment compared to day 0, in words", "setting": "T47D cells [3]", "value": "affected more severely"}, {"measurement": "ERα protein levels, in words", "setting": "[4]", "value": "Reduction of ERα protein levels"}, {"measurement": "Cell counts after treatment compared to day 0, in words", "setting": "MCF-7 cells [5]; 100 μM, three days, trypan blue negative cells", "value": "decreased only mildly; also recorded: did not show much change in the number of viable cells"}, {"measurement": "Cell Growth", "setting": "MCF-7 cells [5]; 2 days of treatment, compounds at 100 μM, except adenosine (500 μM) and inosine (1 mM), normalized to vehicle control (set to 1), negative = decrease vs count before treatment, average ± SD, three experiments", "value": "−0.19 ± 0.06"}, {"measurement": "Colony formation, in words", "setting": "T47D cells [6]", "value": "dramatic decrease in colony formation"}, {"measurement": "Colony formation, in words", "setting": "ZR-75 cells", "value": "dramatic decrease in colony formation"}, {"measurement": "Colony formation, in words", "setting": "HeLa cells", "value": "mild response"}, {"measurement": "Colony formation, in words", "setting": "Hs578T cells", "value": "dramatic decrease in colony formation"}, {"measurement": "Concentration at which the cell growth inhibitory effect is observed", "setting": "MCF-7 cells [7]; MCF-7", "value": "higher than 10 μM"}, {"measurement": "Effect on anchorage-independent growth (colony formation), in words", "setting": "MCF-7 cells [7]; MCF-7 soft agar, different concentrations, two weeks", "value": "dose-dependent inhibition"}]}]}
